This is an account of results in US3976768A, “Fortimicin A” (Abbott Laboratories, priority 1973, dated 1976).

Series [1] relates to Gram-positive and Gram-negative bacteria. The experiment in a line: Antibacterial activity against Gram-positive and Gram-negative bacteria (in words). It is filed as cell-based.
The subject of the next series is Escherichia coli ATCC 26. As to the kind of experiment: Antibacterial spectrum, agar dilution method (pH 8.0). The class given is cell-based. The conditions noted are these: ATCC26, read-out: Minimum inhibitory concentration. A general note: In agar dilution, organisms are placed on agar that contains the substance at set levels.
The test system of a further series is Escherichia coli KY 8310. The series is described as above. It is filed as cell-based. The conditions noted are these: KY8310, resistant to Chloramphenicol, Streptomycin, Kanamycin, Gentamicin, Kanamycin B, Paromomycin, Tetracycline and Spectinomycin, read-out: Minimum inhibitory concentration.
Another series relates to Escherichia coli KY 8327. Described as above. The class given is cell-based. The conditions noted are these: KY8327, pH 8, read-out: Minimum inhibitory concentration.
Series [2] deals with Proteus vulgaris ATCC 6897. The description is as above. The class given is cell-based. To be noted: ATCC6897, read-out: Minimum inhibitory concentration.
The subject of series [3] is Klebsiella pneumoniae ATCC 10031. The series is described as above. The conditions noted are these: ATCC10031, read-out: Minimum inhibitory concentration. It is filed as cell-based.
A further series concerns Escherichia coli KY 8315. Described as above. It is filed as cell-based. To be noted: KY8315, resistant to Streptomycin, Kanamycin, Paromomycin and Neomycin, read-out: Minimum inhibitory concentration.
Series [4] has as its system Pseudomonas aeruginosa BMH No. 1. Described as above. It is filed as cell-based. The conditions noted are these: BMHNO.1, read-out: Minimum inhibitory concentration.
Series [5] relates to Staphylococcus aureus KY 8956. The description is as above. It is filed as cell-based. To be noted: KY8956, resistant to Streptomycin, Paromomycin, Tetracycline, Erythromycin and Oleandomycin, read-out: Minimum inhibitory concentration.
Series [6] has as its system Streptococcus faecalis ATCC 10541. The description is as above. The class given is cell-based. The conditions noted are these: Enterococcus faecalis, ATCC10541, read-out: Minimum inhibitory concentration.
The test system of series [7] is Staphylococcus aureus KY 8950. The series is described as above. It is filed as cell-based. The conditions noted are these: KY8950, resistant to Streptomycin, Tetracycline, Penicillin and sulfonamide, read-out: Minimum inhibitory concentration.
In another series the test system is Staphylococcus aureus. The experiment in a line: Antibacterial activity against resistant Staphylococcus aureus (in words). The class given is cell-based. To be noted: Staphylococcus aureus resistant to various known antibiotics.
In series [8] the test system is Staphylococcus aureus KY 8942. The experiment in a line: Antibacterial spectrum, agar dilution method (pH 8.0). To be noted: KY8942, resistant to Kanamycin, Paramomycin, Streptomycin, Gentamicin and Nebramycin, read-out: Minimum inhibitory concentration. It is filed as cell-based.
Series [9] deals with Staphylococcus aureus KY 8953. The description is as above. The class given is cell-based. The conditions noted are these: KY8953, resistant to Streptomycin, Kanamycin, Paromomycin, Tetracycline, Neomycin, Kanamycin B and Erythromycin, read-out: Minimum inhibitory concentration.
The subject of a further series is Escherichia coli KY 8332. The description is as above. It is filed as cell-based. The conditions noted are these: KY8332, resistant to Kanamycin and Tobramycin, read-out: Minimum inhibitory concentration.
The test system of series [10] is Bacillus cereus ATCC 9634. The series is described as above. It is filed as cell-based. To be noted: ATCC9634, read-out: Minimum inhibitory concentration.
For the next series, the system named is Escherichia coli KY 8314. Described as above. To be noted: KY8314, resistant to Streptomycin, read-out: Minimum inhibitory concentration. The class given is cell-based.
A further series has as its system Escherichia coli. As to the kind of experiment: Antibacterial activity against resistant Escherichia coli (in words). The conditions noted are these: Escherichia coli resistant to various known antibiotics. It is filed as cell-based.
For the next series, the system named is Escherichia coli KY 8302. The experiment in a line: Antibacterial spectrum, agar dilution method (pH 8.0). It is filed as cell-based. To be noted: KY8302, resistant to Chloramphenicol, Streptomycin, Kanamycin, Paromomycin, Tetracycline and Spectinomycin, read-out: Minimum inhibitory concentration.
Series [11] relates to Bacillus subtilis No. 10707. Described as above. The conditions noted are these: read-out: Minimum inhibitory concentration. It is filed as cell-based.
Series [12] deals with Staphylococcus aureus ATCC 6538P. Described as above. To be noted: ATCC6538P, read-out: Minimum inhibitory concentration. The class given is cell-based.
In series [13] the test system is Proteus vulgaris Abbott JJ, KY 4295. The description is as above. It is filed as cell-based. To be noted: read-out: Minimum inhibitory concentration.
A short description of series [14]: Solubility of the free base. The class given is physicochemical.
For series [15], the system named is bacteria of the genus Proteus. As to the kind of experiment: Antibacterial activity against bacteria of the genus Proteus (in words). It is filed as cell-based.
Series [16] has as its system Salmonella typhosa ATCC 9992. As to the kind of experiment: Antibacterial spectrum, agar dilution method (pH 8.0). The conditions noted are these: Salmonella enterica, pH 8, read-out: Minimum inhibitory concentration. It is filed as cell-based.
Series [17] relates to Proteus mirabilis Finland 9 KY 4293. The description is as above. It is filed as cell-based. To be noted: FINLAND9KY4293, read-out: Minimum inhibitory concentration.
Series [18] relates to Proteus morganii Jenkins KY 4298. The description is as above. The class given is cell-based. To be noted: Morganella morganii, read-out: Minimum inhibitory concentration.
In series [19] the test system is Proteus mirabilis No. 825 KY 4292. The series is described as above. The class given is cell-based. The conditions noted are these: NO.825KY4292, read-out: Minimum inhibitory concentration.
Series [20] has as its system Proteus rettgeri Hambrook KY 4289. The description is as above. The conditions noted are these: Providencia rettgeri, read-out: Minimum inhibitory concentration. The class given is cell-based.
The subject of series [21] is Escherichia coli Juhl KY 4286. As to the kind of experiment: In vivo test on mice infected intraperitoneally with Escherichia coli, subcutaneous treatment. Also noted: species or system mice infected with Escherichia coli Juhl KY 4286. As for the experimental part: In this respect, in vivo tests have been conducted on mice infected intraperitoneally with Escherichia coli Juhl KY 4286. The thus infected mice were treated with various concentrations of Fortimicin A by subcutaneous […]. As a result the ED50 of Fortimicin A has been determined to be 6mg/kg. In view of the excellent antibacterial activity, the present substance, Fortimicin A, is considered to be useful in medical treatment as an antibacterial substance. Moreover, in view of the foregoing wide antibacterial spectrum, Fortimicin A may also be useful as a surface antibacterial agent.

For another series, the system named is Proteus vulgaris KY 4296. The experiment in a line: Antibacterial spectrum, agar dilution method (pH 8.0). It is filed as cell-based. The conditions noted are these: KY4296, resistant to nalidixic acid, read-out: Minimum inhibitory concentration.
For series [22], the system named is Staphylococcus aureus KY 8957. Described as above. The class given is cell-based. The conditions noted are these: KY8957, resistant to Chloramphenicol, Streptomycin, Kanamycin B, Tetracycline and Paromomycin, read-out: Minimum inhibitory concentration.
Series [23] deals with Proteus mirabilis No. 39 KY 4290. The series is described as above. The class given is cell-based. The conditions noted are these: NO.39KY4290, read-out: Minimum inhibitory concentration.
The next series concerns Escherichia coli KY 8331. The series is described as above. It is filed as cell-based. To be noted: KY8331, resistant to Kanamycin, Ribostamycin, Neomycin, Paromomycin and Lividomycin, read-out: Minimum inhibitory concentration.
In series [24] the test system is Proteus rettgeri Booth KY 4288. The series is described as above. The conditions noted are these: Providencia rettgeri, read-out: Minimum inhibitory concentration. The class given is cell-based.
Series [25] has as its system Shigella sonnei ATCC 9290. The series is described as above. The class given is cell-based. To be noted: ATCC9290, read-out: Minimum inhibitory concentration.
The subject of series [26] is Bacillus cereus var. mycoides ATCC 9463. As to the kind of experiment: microbe, parasite or virus in culture. The class given is cell-based. The conditions noted are these: ATCC9463, pH 8, read-out: Minimum inhibitory concentration.
The subject of series [27] is Pseudomonas aeruginos KY 8510. The experiment in a line: Antibacterial spectrum, agar dilution method (pH 8.0). The class given is cell-based. The conditions noted are these: KY8510, pH 8, read-out: Minimum inhibitory concentration.

In brackets after ≈: the same amount, converted by molar mass. Entries after “also recorded” stand apart in the source; their conditions may differ.

As to `CNC1C(O)C(OC2OC(C(C)N)CCC2N)C(N)C(O)C1OC` (centres unmarked) [Fortimicin B], the Antibacterial activity result in series [1] was “activity against Gram-positive and Gram-negative bacteria”.
In general, ED50 refers to the dose at which the effect has come halfway, by size or by number of responders. Low values mean greater potency, high ones weaker potency. In the case of `COC1C(O)C(N)C(OC2OC(C(C)N)CCC2N)C(O)C1N(C)C(=O)CN` (centres unmarked) [Fortimicin A], the MIC was 0.16 µg/mL (≈ 0.395 µM) in the series with Escherichia coli ATCC 26; 0.13 µg/mL (≈ 0.321 µM) in the series on Escherichia coli KY 8310; 0.13 µg/mL (≈ 0.321 µM) with Escherichia coli KY 8327; 0.16 µg/mL (≈ 0.395 µM) in series [2]; 0.08 µg/mL (≈ 0.197 µM) in series [3]; 0.13 µg/mL (≈ 0.321 µM) in the series on Escherichia coli KY 8315. The MIC is 5 µg/mL (≈ 12.3 µM) in [4]; 0.32 µg/mL (≈ 0.789 µM) in series [5]; 10 µg/mL (≈ 24.7 µM) in series [6]; 1.3 µg/mL (≈ 3.21 µM) in series [7]; 10 µg/mL (≈ 24.7 µM) in series [8]; 1.3 µg/mL (≈ 3.21 µM) in [9]. Further, the MIC in the series on Escherichia coli KY 8332 turned out to be 0.3 µg/mL (≈ 0.74 µM); in [10], 0.6 µg/mL (≈ 1.48 µM); with Escherichia coli KY 8314 it was 0.26 µg/mL (≈ 0.641 µM); with Escherichia coli KY 8302, 0.26 µg/mL (≈ 0.641 µM); in series [11], 0.02 µg/mL (≈ 0.0493 µM); in series [12] it was 0.04 µg/mL (≈ 0.0986 µM). In addition, the MIC in series [13] was determined as 0.8 µg/mL (≈ 1.97 µM); in [16] it was 0.08 µg/mL (≈ 0.197 µM); in [17], 0.8 µg/mL (≈ 1.97 µM); in [18] it was 1.6 µg/mL (≈ 3.95 µM); in series [19] it was 0.41 µg/mL (≈ 1.01 µM); in [20], 0.41 µg/mL (≈ 1.01 µM). The MIC in the series with Proteus vulgaris KY 4296 is 0.41 µg/mL (≈ 1.01 µM); in series [22], 0.32 µg/mL (≈ 0.789 µM); in series [23] it was 0.8 µg/mL (≈ 1.97 µM); in the series on Escherichia coli KY 8331, 0.3 µg/mL (≈ 0.74 µM); in series [24] it was 0.8 µg/mL (≈ 1.97 µM); in [25], 0.3 µg/mL (≈ 0.74 µM). For the same molecule, the figures for the MIC in [26] and in series [27] were 0.6 µg/mL (≈ 1.48 µM) and 5 µg/mL (≈ 12.3 µM), respectively. Moreover, the Antibacterial activity entry in the series on Staphylococcus aureus is “strong antibacterial activity”; in the series on Escherichia coli it was “strong antibacterial activity”; in [15], “satisfactory antibacterial activity”; in [1] it was “active upon Gram-positive and Gram-negative bacteria; also recorded: wide range of activity”. The “Solubility in organic solvents” value in [14] (chloroform, benzene, ethyl acetate, butyl acetate, ethyl ether, butanol, petroleum ether, n-hexane, etc., free base) was “insoluble”. For the same molecule, in series [14] (ethanol and acetone, free base), the “Solubility in ethanol and acetone” value is recorded as “slightly soluble”. Moreover, the Solubility in methanol entry in [14] (methanol, free base) is “soluble”. In addition, the “Solubility in the ordinary organic solvents” value in series [14] (ordinary organic solvents) is reported as “poorly soluble”. In addition, the Solubility in water entry in series [14] (water, free base) is on record as “soluble; also recorded: very soluble”. Further, in [21] (Escherichia coli, JUHLKY4286, sc), the median effective dose (ED50) is 6 mg/kg. For the same molecule, the Therapeutic effects result in series [21] (therapy of infectious diseases caused by the tested bacteria) was “remarkable therapeutic effects”.
